{"source": "paper PMC3115046", "about": "“Analyzing Airway Inflammation with Chemical Biology: Dissection of Acidic Mammalian Chitinase Function with a Selective Drug-like Inhibitor” (Chemistry & Biology, 2011)", "key": {"human AMCase (hAMCase)": {"biological_target": "T1, human AMCase (hAMCase) (Homo sapiens, UniProt Q9BZP6)", "T1 construct": "A fragment corresponding to hAMCase 22-398 (bp 64–1194) was ligated into the pPIC9 vector; made in house; host or cells: Pichia pastoris GS115", "T1 sequence (Q9BZP6 22-398)": "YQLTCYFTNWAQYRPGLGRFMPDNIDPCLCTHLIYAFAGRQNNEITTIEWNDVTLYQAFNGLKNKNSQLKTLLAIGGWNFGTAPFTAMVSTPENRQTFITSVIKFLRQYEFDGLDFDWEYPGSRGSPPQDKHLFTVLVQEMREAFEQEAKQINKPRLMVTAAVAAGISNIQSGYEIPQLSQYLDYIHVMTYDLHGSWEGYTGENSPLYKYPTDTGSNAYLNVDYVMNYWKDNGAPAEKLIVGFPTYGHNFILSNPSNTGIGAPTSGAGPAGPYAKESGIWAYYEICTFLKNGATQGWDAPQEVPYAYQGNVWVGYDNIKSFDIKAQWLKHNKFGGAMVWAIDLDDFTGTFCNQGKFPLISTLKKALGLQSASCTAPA", "test": "Chitinase activity assay with fluorescent 4-MU substrate, hAMCase", "type": "biochemical", "protocol": "A fragment corresponding to hAMCase 22-398 (bp 64–1194) was ligated into the pPIC9 vector (Invitrogen) using the Xho I and Not I restriction sites. The enzyme was subsequently overexpressed as a secreted protein from the Pichia pastoris GS115 strain and purified using a combination of affinity chromatography and size-exclusion chromatography. Pure hAMCase was spin concentrated to 37 mg/ml in 25 mM HEPES (pH 6.8), 250 mM NaCl. The protein was crystallized at 30°C from 75% saturated NaCl, 0.1 M HEPES (pH 7.4) using the hanging drop method. Crystals grew to an approximate size of 200 × 100 × 50 μm. Crystals were cryoprotected in 50% saturated NaCl, 20% glycerol in 0.1 M HEPES (pH 7.4) and subsequently flash frozen in liquid nitrogen. […] Data for hAMCase were collected at ID14-EH1 at the European Synchrotron Radiation Facilities (ESRF) using a cryostream of cold nitrogen (110 K). […]\nChitinase activity of hAMCase, lung homogenates, or AMCase COS-7 cell supernatants (serum-free) were determined using 4-methylumbelliferyl-β-D-N,N′,N″-triacetylchitotrioside and 4-methylumbelliferyl-β-D-N,N′,N″-triacetylchitobioside, as described. […] Liberated 4-methlyumberlliferone was quantified using a microplate fluorometer (excitation 360 nm/emission 440 nm). Ki and IC50 values were determined in the presence of different concentrations of inhibitor. […]"}, "recombinant mAMCase": {"biological_target": "T2, recombinant mAMCase (Mus musculus, UniProt Q91XA9)", "T2 construct": "The full-length-coding region of mAMCase was amplified using a lung cDNA template; V5/His; made in house; cell-free, serum-free supernatant used as enzyme source", "T2 sequence (Q91XA9 22-473)": "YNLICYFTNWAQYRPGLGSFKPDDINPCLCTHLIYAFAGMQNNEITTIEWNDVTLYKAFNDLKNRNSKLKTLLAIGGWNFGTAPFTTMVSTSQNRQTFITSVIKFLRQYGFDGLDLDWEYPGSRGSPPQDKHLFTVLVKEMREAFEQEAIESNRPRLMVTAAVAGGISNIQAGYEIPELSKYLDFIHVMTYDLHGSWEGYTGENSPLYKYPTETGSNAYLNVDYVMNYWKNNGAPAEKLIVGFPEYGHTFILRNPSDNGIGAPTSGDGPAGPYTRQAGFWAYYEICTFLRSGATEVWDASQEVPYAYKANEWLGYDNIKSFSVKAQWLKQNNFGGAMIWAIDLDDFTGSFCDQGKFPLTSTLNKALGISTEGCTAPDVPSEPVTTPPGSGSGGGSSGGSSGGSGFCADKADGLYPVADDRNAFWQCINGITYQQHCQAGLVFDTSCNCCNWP", "test": "Recombinant mAMCase (COS-7 cell-free supernatant) chitinase activity assay", "type": "biochemical", "conditions": "10 min at 37°C, read-out: IC50 against recombinant mAMCase", "description": "Chitinase activity was determined using a fluorescent 4-methylumbelliferyl (4-MU) substrate. […] Chitinase activity is measured relative to the amount of substrate hydrolysed/hr/mL sample.\nThe full-length-coding region of mAMCase was amplified using a lung cDNA template. The cDNA fragment was directionally cloned into pcDNA3.1 (Invitrogen), to generate a V5/His tagged plasmid. TOP10 competent cells were transformed with the AMCase plasmid and sequence confirmed. Mammalian COS-7 cells were transfected with AMCase-pcDNA3.1 plasmid using Lipofectamine 2000 (Invitrogen). COS-7 cell supernatants were screened for AMCase protein by western blot and chitinase activity. A stable AMCase-expressing cell line was generated using G418 selection medium (RPMI).\nChitinase activity of hAMCase, lung homogenates, or AMCase COS-7 cell supernatants (serum-free) were determined using 4-methylumbelliferyl-β-D-N,N′,N″-triacetylchitotrioside and 4-methylumbelliferyl-β-D-N,N′,N″-triacetylchitobioside, as described. Samples were incubated with substrate (0.022 mM in 100 mM citric acid, 200 mM sodium phosphate buffer [pH 5.2]) in a final volume of 50 μL. […] Liberated 4-methlyumberlliferone was quantified using a microplate fluorometer (excitation 360 nm/emission 440 nm). Ki and IC50 values were determined in the presence of different concentrations of inhibitor. Experiments were performed in duplicate or triplicate."}, "[1]": {"system": "lung tissue gene expression", "test": "Lung mRNA expression by quantitative RT-PCR, OVA model", "type": "in vivo, BALB/c mice", "protocol": "All experiments used female BALB/c mice, 6- to 8-weeks-old. Mice were kept in individually ventilated cages and all experiments were conducted under UK Home Office guidelines. Mice were sensitized (day 0) and boosted (day 14) i.p. with 20 μg OVA (Grade V, Sigma) adsorbed to 9% potassium alum. Mice were either challenged on day 28 and 30 with 50 μg OVA or PBS by the intratracheal route or were challenged with 1% OVA or PBS by aerosol for 30 min on day 28 to day 30. […] Necropsies were performed 24 hr after the final airway challenge. One part of the left lobe of the lung, removed following BALF, was stored in RNAlater (Ambion) at 4°C for up to 4 weeks. Lung samples were homogenized in RLT lysis buffer using TissueLyser (QIAGEN) and total RNA extracted using RNeasy mini spin columns (QIAGEN). RNA (1 μg) was used for synthesis of cDNA using Moloney murine leukemia virus reverse transcriptase. Relative quantification of genes was carried out by RT-PCR using the Roche Lightcycler, as previously described ([Nair et al., 2005]). PCR amplication was analyzed using 2nd derivative Maximum alogarithm (LightCycler 480 SW 1.5, Roche) and the expression of the gene of interest was normalized to the housekeeping gene, GAPDH. Primer sequences used were as follows: GAPDH-For [NT], Rev [NT]1-For [NT], Rev [NT] Collagen I-For [NT], Rev [NT]-1α-For [NT], Rev […]-12-For [NT], Rev [NT]; and TIMP-1-For [NT], Rev [NT]"}, "[2]": {"conditions": "1 and 5 mg/kg i.p., allergic animals"}}, "note": "Where “and” joins values, the source holds several entries; their conditions need not be identical. Identical values can stand only once.", "data": [{"smiles": "Cn1cnc2c1c(=O)n(CCCn1c(=O)c3[nH]cnc3n(C)c1=O)c(=O)n2C", "note": "[bisdionin F]", "values": [{"measurement": "IC50", "setting": "human AMCase (hAMCase); 4-MU substrate, pH 5.2, 10 min 37°C, read-out: IC50 against hAMCase", "value": "920 ± 40", "unit": "nM"}, {"measurement": "selectivity for AMCase over CHIT1", "setting": "human AMCase (hAMCase); hAMCase vs hCHIT1", "value": 20, "unit": "fold"}, {"measurement": "IC50", "setting": "recombinant mAMCase", "value": "2210 nM and 2200 nM"}, {"measurement": "MIP-1α mRNA expression in lung", "setting": "[1]; 5 mg/kg i.p., OVA-challenged animals", "value": "enhanced"}, {"measurement": "MMP-12 mRNA expression in lung", "setting": "[1]; [2]", "value": "significantly increased"}, {"measurement": "TIMP-1 mRNA expression in lung", "setting": "[1]; [2]", "value": "downregulated"}, {"measurement": "Ym1 mRNA expression in lung", "setting": "[1]; [2]", "value": "significantly increased"}, {"measurement": "procollagen I mRNA expression in lung", "setting": "[1]; [2]", "value": "significantly increased"}, {"measurement": "enhancement of the ratio of MMP:TIMP expression", "setting": "[1]; MMP-12:TIMP-1 mRNA, allergic animals", "value": 2.5, "unit": "fold"}]}]}
